In ChEMBL document CHEMBL1148662, “Activation of mitogen activated protein kinase (MAPK) during D-galactosamine intoxication in the rat liver” (2006):
Active and inactive are the calls of the source. The rule behind the calls is not given here.

Key:
Rattus norvegicus [1] = test: Increase in hepatic vitamin C level in Wistar rat at 1 g/kg, ip after 1.5 hrs relative to control; assay type: functional
Rattus norvegicus [2] = test: Increase in hepatic vitamin C level in Wistar rat at 1 g/kg, ip after 3 hrs relative to control; assay type: functional
Rattus norvegicus [3] = test: Increase in hepatic vitamin C level in Wistar rat at 1 g/kg, ip after 6 hrs relative to control; assay type: functional
Rattus norvegicus [4] = test: Increase in plasma glutamate oxaloacetate transaminase level in Wistar rat at 1 g/kg, ip after 1.5 hrs relative to control; assay type: functional
Rattus norvegicus [5] = test: Increase in plasma glutamate oxaloacetate transaminase level in Wistar rat at 1 g/kg, ip after 3 hrs relative to control; assay type: functional
Rattus norvegicus [6] = test: Increase in plasma glutamate oxaloacetate transaminase level in Wistar rat at 1 g/kg, ip after 6 hrs relative to control; assay type: functional
Rattus norvegicus [7] = test: Increase in plasma glutamate oxaloacetate transaminase level in Wistar rat at 1 g/kg, ip after 12 hrs relative to control; assay type: functional
Rattus norvegicus [8] = test: Increase in plasma glutamate oxaloacetate transaminase level in Wistar rat at 1 g/kg, ip after 24 hrs relative to control; assay type: functional
Rattus norvegicus [9] = test: Increase in plasma glutamate pyruvate transaminase level in Wistar rat at 1 g/kg, ip after 1.5 hrs relative to control; assay type: functional
Rattus norvegicus [10] = test: Increase in plasma glutamate pyruvate transaminase level in Wistar rat at 1 g/kg, ip after 3 hrs relative to control; assay type: functional
Rattus norvegicus [11] = test: Increase in plasma glutamate pyruvate transaminase level in Wistar rat at 1 g/kg, ip after 6 hrs relative to control; assay type: functional
Rattus norvegicus [12] = test: Increase in plasma glutamate pyruvate transaminase level in Wistar rat at 1 g/kg, ip after 12 hrs relative to control; assay type: functional
Rattus norvegicus [13] = test: Increase in plasma glutamate pyruvate transaminase level in Wistar rat at 1 g/kg, ip after 24 hrs relative to control; assay type: functional
Rattus norvegicus [14] = test: Increase in hepatic vitamin C level in Wistar rat at 1 g/kg, ip after 12 hrs relative to control; assay type: functional
Rattus norvegicus [15] = test: Increase in hepatic vitamin C level in Wistar rat at 1 g/kg, ip after 24 hrs relative to control; assay type: functional
Rattus norvegicus [16] = test: Increase in phosphorylated JNK level in Wistar rat at 1 g/kg, ip after 3 hrs relative to control; assay type: functional, organism-based
Rattus norvegicus [17] = test: Increase in phosphorylated ERK level in Wistar rat at 1 g/kg, ip after 3 hrs relative to control; assay type: functional, organism-based
Rattus norvegicus [18] = test: Increase in phosphorylated p38 MAPK level in Wistar rat at 1 g/kg, ip after 6 hrs relative to control; assay type: functional, organism-based

What does the source list for N[C@H]1C(O)O[C@H](CO)C(O)[C@@H]1O (single isomer, unassigned) [GLUCOSAMINE]?
Activity (Rattus norvegicus [1]): 1571 nmol/g; Activity (Rattus norvegicus [2]): 1137 nmol/g; Activity (Rattus norvegicus [3]): 1118 nmol/g; Activity (Rattus norvegicus [4]): 52.3 nmol/g; Activity (Rattus norvegicus [5]): 124 nmol/g; Activity (Rattus norvegicus [6]): 517 nmol/g; Activity (Rattus norvegicus [7]): 793 nmol/g; Activity (Rattus norvegicus [8]): 2560 nmol/g; Activity (Rattus norvegicus [9]): 25.8 nmol/g; Activity (Rattus norvegicus [10]): 49.7 nmol/g; Activity (Rattus norvegicus [11]): 295 nmol/g; Activity (Rattus norvegicus [12]): 426 nmol/g; Activity (Rattus norvegicus [13]): 1519 nmol/g; Activity (Rattus norvegicus [14]): 1104 nmol/g; Activity (Rattus norvegicus [15]): 978 nmol/g; Activity (Rattus norvegicus [16]): Active; Activity (Rattus norvegicus [17]): Active; Activity (Rattus norvegicus [18]): Active
